Source: patent US20060286561A1, “PROPARGYLETHOXYAMINO NUCLEOTIDES” (Applera Corporation; Applied Biosystems Group, priority 1996, published 2006)

Columns and labels:
Type in all cases: biochemical
[1] = molecular target: AmpliTaq FS Polymerase (mutant form of Taq DNA polymerase) (Thermus aquaticus, UniProt P19821, F667Y/G46D); assay: Single-Nucleotide Incorporation Assay for relative enzyme selectivity; conditions: for ddCTP/(Dye)-ddCTP (ratio of incorporation rates, preference for unlabeled ddCTP): ddCTP and dye-ddCTP each 200 μM, 8 nM enzyme, 60° C., corrected for energy transfer
Chain of AmpliTaq FS Polymerase (mutant form of Taq DNA polymerase) (P19821 whole entry G46D/F667Y): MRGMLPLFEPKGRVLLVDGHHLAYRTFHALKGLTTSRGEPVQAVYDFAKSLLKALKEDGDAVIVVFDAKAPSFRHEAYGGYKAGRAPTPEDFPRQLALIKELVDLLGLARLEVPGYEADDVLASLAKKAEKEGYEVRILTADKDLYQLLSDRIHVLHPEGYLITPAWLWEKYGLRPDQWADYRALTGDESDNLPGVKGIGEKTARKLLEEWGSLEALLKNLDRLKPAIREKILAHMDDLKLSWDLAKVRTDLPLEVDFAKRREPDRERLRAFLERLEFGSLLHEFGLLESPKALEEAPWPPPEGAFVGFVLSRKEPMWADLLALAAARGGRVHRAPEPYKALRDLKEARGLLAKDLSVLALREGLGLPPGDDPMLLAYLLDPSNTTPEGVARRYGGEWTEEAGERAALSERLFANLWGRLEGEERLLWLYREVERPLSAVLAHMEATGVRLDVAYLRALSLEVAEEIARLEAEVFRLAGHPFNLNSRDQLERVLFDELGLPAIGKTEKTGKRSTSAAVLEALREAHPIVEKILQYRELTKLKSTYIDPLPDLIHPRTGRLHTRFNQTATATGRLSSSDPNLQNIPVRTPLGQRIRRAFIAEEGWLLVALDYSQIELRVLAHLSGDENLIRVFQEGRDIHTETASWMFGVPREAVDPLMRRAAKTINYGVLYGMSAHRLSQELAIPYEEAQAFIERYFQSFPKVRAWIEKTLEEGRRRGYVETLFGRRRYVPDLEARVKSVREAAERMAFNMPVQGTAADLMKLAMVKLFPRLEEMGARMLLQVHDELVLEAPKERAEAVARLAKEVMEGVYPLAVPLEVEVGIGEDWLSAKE
Text: In the assay, an unlabeled terminator and its cognate dye-labeled terminator are present in equal concentrations and allowed to compete for the same polymerase-substrate binding site under enzyme limited (steady-state) conditions.
With reference to FIG. 3, the components of the assay include a 36 nucleotide template (5); a 25 nucleotide primer (10) having a sequence complementary to the template and a first fluorescent label at the 5′-end (15); an unlabeled terminator (20); a dye-labeled terminator (25) having a second fluorescent label attached thereto (30) which is spectrally resolvable from the first fluorescent label; and a polymerase enzyme. In the present example, the unlabeled terminator was 2′,3′-ddCTP and the dye-labeled terminator was 6-(FAM)-ddCTP where different linker arms were used to attach the dye to the nucleotide. The template DNA contained a single G (35) at the template position following the end of the primer.
Products (40) and (45) were detected by resolving them electrophoretically and detecting the resulting bands using an ABI PRISM™ 373 DNA Sequencer (PE Applied Biosystems). A typical banding pattern consisted of a 25-mer band corresponding to the labeled primer (10), a 26-mer band corresponding to the product (40) and an “apparent 27-mer” which corresponded to product (45). The apparent extra base seen in product (45) is a result of the effect of the dye-labeled terminator on the electrophoretic mobility of the fragment. By taking samples from a reaction mixture and measuring the relative amounts of DNA in the 25-mer, 26-mer, and apparent 27-mer bands as a function of time, it was possible to measure the relative incorporation rates of the unlabeled and dye-labeled terminators in the reaction. […] In this manner, it was possible to measure the effect of linker structure on dye-terminator incorporation.
For the case of product (45), it is necessary to correct the fluorescence signal for fluorescence energy transfer which takes place between the first fluorescent label (15) located at the 5′-end of product (45), TAMRA in this example, and the second fluorescent label (30) located on the terminator positioned at the 3′-end of product (45), FAM in this example. Under the conditions used for detection, the presence of the 3′-FAM label serves to enhance the signal resulting from the TAMRA label. The energy-transfer correction is accomplished by synthesizing a doubly labeled internal standard molecule having the same structure as product (45), preparing a control sample containing equal moles of the 5′-TAMRA labeled primer (10) and the doubly labeled internal standard molecule, and running the control sample in a control lane on the same gel as assay products (40) and (45). Any difference in TAMRA fluorescence between the primer (10) and the doubly labeled internal standard is a quantitative measure of the extent of energy transfer between the dye moieties in the assay product (45). […] This measurement was used to correct the TAMRA fluorescence from the product (45) in each of the test sample lanes.
(The numbers in parenthesis next to certain components refer to elements in FIG. 3.)
The assay reactions were prepared as follows. Two 2×-concentrated “Half Reaction Mixtures” were prepared and held on ice. A first solution, the “2× Enz·DNA” mixture, comprised […] template/primer DNA and […] AmpliTaq FS in 80 mM TRIS buffer. A second solution, the “2× Mg·Nuc” mixture, comprised 80 mM TRIS buffer plus 4.8 mM MgCl2 and each of the nucleotides at 400 μM. A “Zero Time Control” sample was prepared by adding 1 μl of the 2× Enz-DNA mixture to 25 μl of “STOP Solution” (0.5 M EDTA, […]), and, after mixing, adding 1 μl of the 2× Mg·Nuc mixture. The Zero Time Control sample was held on ice until the remainder of the timed samples were also collected for further processing. […]

[2] = molecular target: T1, AmpliTaq DNA Polymerase, FS (Thermus aquaticus, UniProt P19821, F667Y/G46D); assay: Terminator Titration Assay (dye-terminator cycle sequencing reaction); conditions: for mean peak height / relative error of peak height (standard deviation / mean): FIG. 2, at optimal terminator concentration; for relative error of peak height (standard deviation / mean): lower = more even peak heights; for optimal concentration of terminator: FIG. 2, sequencing pattern comparison
T1 construct: purchased PE Applied Biosystems p/n 402117
T1 sequence (P19821 whole entry G46D/F667Y): as above

[3] = molecular target: T1, AmpliTaq DNA Polymerase, FS; assay: as above; conditions: for Relative Molar Excess Terminator Required: to form a full sequencing ladder
Text: The Terminator Titration Assay was used to determine the minimum amount of dye terminator required to create a full sequencing ladder, i.e., a sequencing ladder including all fragments terminating in a particular base having a length of between about 20 to about 600 nucleotides. The key components of the assay were (i) a primer labeled with a first dye, and (i) a terminator labeled with a second dye spectrally resolvable from the first dye. In the assay, when an insufficient concentration of dye terminator was added to the sequencing reaction, no dideoxy-terminated fragments were formed, and all that was seen on the sequencing gel were products formed by “false stops” that were labeled with the first dye only. As used herein the term “false stops” refer to primer extension products not terminating in a dideoxy terminator, such products probably being formed when the polymerase enzyme spontaneously disengages with the template strand. When too much terminator was used, only short termination products were formed, i.e., less than about 50 nucleotides in length, such products including both the first and second dyes. When the proper amount of terminator was used, a full sequencing ladder was produced, each fragment of the ladder being labeled with both the first and second dyes.
The dye-terminator reactions were performed using AmpliTaq DNA Polymerase, FS following protocols provided in the ABI PRISM™ Dye Terminator Cycle Sequencing Core Kit Manual (PE Applied Biosystems p/n 402116). (The FS enzyme is a recombinant Thermus aquaticus DNA polymerase having two point mutations--G46D and F667Y). All reagents except the dNTP mix, dye labeled primers, and dye-labeled terminators were from an ABI PRISM™ Dye Terminator Core Kit (PE Applied Biosystems p/n 402117). The dNTP mix consisted of 2 mM each of dATP, dCTP, dGTP and dTTP. A premix of reaction components was prepared as shown in the following table wherein all quantities are given on a per reaction basis:
Reactions were assembled in 0.5 ml tubes adapted for the Perkin-Elmer 480 DNA Thermal Cycler (PE Applied Biosystems p/n N801-100). Reaction volumes were 20 μL, including 15 μL, of the above reaction premix, a variable amount of dye labeled terminator, and a sufficient volume of water to bring the total reaction volume up to 20 μL. From 1 to 1000 pmol of the dye terminator was added to each reaction. 30 μL of mineral oil was added to the top of each reaction to prevent evaporation. Reactions were thermocycled as follows: 96° C. for 30 sec, 50° C. for 15 sec, and 60° C. for 4 min, for 25 cycles; followed by a 4° C. hold cycle.
All reactions were purified by spin-column purification on Centri-Sep spin columns according to manufacturer's instructions (Princeton Separations p/n CS-901). Gel material in the column was hydrated with 0.8 mL deionized water for at least 30 minutes at room temperature. After the column was hydrated and it was determined that no bubbles were trapped in the gel material, the upper and lower end caps of the column were removed, and the column was allowed to drain by gravity. The column was then inserted into the wash tubes provided in the kit and centrifuged in a variable speed microcentrifuge at 1300×g for 2 minutes, removed from the wash tube, and inserted into a sample collection tube. The reaction mixture was carefully removed from under the oil and loaded onto the gel material. Columns were centrifuged in a variable speed microcentrifuge at 1300×g for 2 minutes. Eluted samples were then dried in a vacuum centrifuge.
Prior to loading onto a sequencing gel, the dried samples were resuspended in 25 μL of Template Suppression Reagent (PE Applied Biosystems p/n 401674), vortexed, heated to 95° C. for 2 minutes, cooled on ice, vortexed again, and centrifuged (13,000×g). 10 μL of the resuspended sample was aliquoted into sample vials (PE Applied Biosystems p/n 401957) adapted for the PE ABI PRISM™ 310 Genetic Analyzer (PE Applied Biosystems p/n 310-00-100/120). […]

[4] = C-terminator linked to 6-FAM dye, unlabeled dideoxy terminator = 1
[5] = C-terminator, various combinations of dyes and linkers, unlabeled terminator = 1

| SMILES | ddCTP/(Dye)-ddCTP (ratio of incorporation rates, preference for unlabeled ddCTP) [1] | ddCTP/(Dye)-ddCTP (ratio of incorporation rates, preference for unlabeled ddCTP) ([1]; listed as FAM-ddCTP (propargylamido linker)) | mean peak height [2] | relative error of peak height (standard deviation / mean) [2] | optimal concentration of terminator [2] | Relative Molar Excess Terminator Required [3, 4] | Relative Molar Excess Terminator Required [3, 5] | increase of bias against dye-ddCTP versus propargylamido linker ([1]; FAM-ddCTP, from 65× to 110×) | ddCTP/(Dye)-ddCTP (ratio of incorporation rates, preference for unlabeled ddCTP) ([1]; listed as FAM-ddCTP (propargyl-2-ethoxyamido linker)) | ddCTP/(Dye)-ddCTP (ratio of incorporation rates, preference for unlabeled ddCTP) ([1]; listed as FAM-ddCTP (propargyl-1-ethoxyamido linker)) | reduced molar excess as compared with terminators employing the propargylamido linker ([3]; C-terminator) | reduced molar excess as compared with terminators employing a propargyl-2-ethoxyamido linker ([3]; C-terminator linked to 6-FAM) |
| --- | --- | --- | --- | --- | --- | --- | --- | --- | --- | --- | --- | --- |
| Nc1nc(=O)n(C2CCC(COP(=O)(O)OP(=O)(O)OP(=O)(O)O)O2)cc1C#CCNC(=O)c1ccc2c(c1)C(=O)OC21c2ccc(O)cc2Oc2cc(O)ccc21 (stereo not shown) [(6-FAM)-propargylamido-C, reference compound] | 65× | 65 × | 1800 | 0.533 | 250 pmol | 55 | 55 |  |  |  |  |  |
| Nc1nc(=O)n(C2CCC(COP(=O)(O)OP(=O)(O)OP(=O)(O)O)O2)cc1C#CCOCCOCCNC(=O)c1ccc2c(c1)C(=O)OC21c2ccc(O)cc2Oc2cc(O)ccc21 (stereo not shown) [(6-FAM)-propargyl-2-ethoxyamido-C] | 110× |  |  |  |  | 45 |  | about 2 fold | 110 × |  |  |  |
| Nc1ccn([C@H]2CC[C@@H](COP(=O)(O)OP(=O)(O)OP(=O)(O)O)O2)c(=O)n1 [Unlabeled terminator, 2′,3′-ddCTP, reference compound] |  |  |  |  |  | 1 | 1 |  |  |  |  |  |
| Nc1nc(=O)n(C2CCC(COP(=O)(O)OP(=O)(O)OP(=O)(O)O)O2)cc1C#CCOCCNC(=O)c1ccc2c(c1)C(=O)OC21c2ccc(O)cc2Oc2cc(O)ccc21 (stereo not shown) [(6-FAM)-propargyl-1-ethoxyamido-C] | 19× |  | 504 | 0.436 | 50 pmol | 9 | 9 |  |  | 19 × | six-fold | five-fold |
